Patent publication US8404287B2, “Use of Fructus schisandrae and extracts thereof in preventing and decreasing toxic and side effects of antineoplastic drugs” (priority 2005, dated 2013)
Read-outs that look alike come from different tables or passages of the source.

Columns and labels:
ICR mice [1] = conditions: antineoplastic agent ip once every two days x7 (Methotrexate 2, Cisplatin 2, 5-fluorouracil 30, Cytoxan 30, Vincristine 0.3 mg/kg), alone or within two hours after lignan 100 mg/kg ig
Excerpt: The mice were divided randomly as following, 6 mice per group.

ICR mice [2] = conditions: antineoplastic agent ip once every two days x7 (Methotrexate 2, Cisplatin 2, 5-fluorouracil 30, Cytoxan 30, Vincristine 0.3, Doxorubicin 4 mg/kg), alone or within 2 h after extract 400 mg/kg ig
Excerpt: The mice were grouped randomly as below, 6 mice per group.

ICR mice [3] = test: Apparent condition of mice, ethanol extract and Doxorubicin (Example 2); format: in vivo, mouse; conditions: Doxorubicin alone or with extract ig 3 times
[4] = tested on: mice with acute toxicity induced by Doxorubicin; test: Survival rate of mice with acute toxicity induced by Doxorubicin, ethanol extract (Example 2); format: in vivo, mouse
Experimental: Group of Doxorubicin (the Dox group): 42 mice were dosed intragastrically with normal saline in an amount of 20 ml/kg each time at the 1st-3rd day of the experiment, once a day. At the 3rd day, the mice were injected with Doxorubicin of 25 mg/kg into their abdominal cavities.
Group 1 of Doxorubicin plus the extract of Fructus schisandrae (group 1 of Dox +X): 24 mice were dosed intragastrically with the extract of Fructus schisandrae in an amount of 400 mg/kg each time at the 1st-3rd day of the experiment, once a day. At the 3rd day, the mice were injected with 25 mg/kg of Doxorubicin into their abdominal cavities 0.5 hours after drench.
Group 2 of Doxorubicin plus the extract of Fructus schisandrae (group 2 of Dox +X): 24 mice were dosed intragastrically with the extract of Fructus schisandrae in an amount of 200 mg/kg each time at the 1st-3rd day of the experiment, once a day. At the 3rd day, the mice were injected with 25 mg/kg of Doxorubicin into their abdominal cavities 0.5 hours after drench.

[5] = tested on: mice with myocardial damage induced by Doxorubicin; test: Serum myocardium enzymes (CK, CK-MB, LDH, GOT) after Doxorubicin, Schisandrin B (Example 7)
Experimental: CK, CK-MB, LDH and GOT were determined by automatic biochemistry analyzer.
Control group: 24 mice were dosed intragastrically with normal saline at the 1st-3rd day of the experiment, once a day and each time with 20 ml/kg.
Group of Schisandrin B (SchB group): 24 mice were dosed intragastrically with SchB at the 1st-3rd day of the experiment, once a day and each time with 100 mg/kg.
Group of Doxorubicin: 42 mice were dosed intragastrically with normal saline at the 1st-3rd day of the experiment, once a day and each time with 20 ml/kg.
At the 5th day (48 hours after injection of Doxorubicin into abdominal cavity), blood were taken from 6 mice of each group. The serum was separated by regular separation. CK, CK-MB, LDH and GOT were determined by automatic biochemistry analyzer.

[6] = tested on: mice with myocardial damage induced by Doxorubicin; test: Serum myocardium enzymes (CK, CK-MB, LDH, GOT) after Doxorubicin, ethanol extract (Example 2); format: in vivo, mouse; conditions: Dox group: Doxorubicin 25 mg/kg ip at 3rd day; vs control group and X group (P<0.05); 48 h after injection
Experimental: Ethanol extract of Fructus schisandrae prepared from Example 1 was dissolved in 0.5% Poloxamer. CK (creatine kinase), CK-MB (creatine kinase isozyme), LDH (lactic dehydrogenase) and GOT (glutamic-oxalocetic transaminase) were detected by automatic biochemistry analyzer.
The serum was separated by regular separation and frozen at −80° C.

ICR mice [7] = conditions: Doxorubicin alone or in combination with dibenzocyclooctadiene lignans
Experimental: Doxorubicin Hydrochloride Injection was obtained from Italy pharmacia Co. Six Dibenzocyclooctadiene lignans were obtained from National Institute for the Verification of Pharmaceutical and Biological Products (Product No.: 110765-200407), which were dissolved in 0.5% Poloxamer. Female ICR mice with a body weight of 25-30 g were obtained from Shanghai Experimental Animal Center, which were grouped randomly into 4 groups, 10 mice per group.
Group of Doxorubicin (Dox group): 10 mice were injected into their abdominal cavities with 2 mg/kg of Doxorubicin once every two days, consecutively for 7 times.

[8] = tested on: mice with acute toxicity induced by Doxorubicin; test: Survival rate of mice with acute toxicity induced by Doxorubicin, Schisandrin B (Example 7); format: in vivo, mouse
Experimental: Group of Doxorubicin: 42 mice were dosed intragastrically with normal saline at the 1st-3rd day of the experiment, once a day and each time with 20 ml/kg. At the 3rd day, the mice were injected into their abdominal cavities with Doxorubicin of 25 mg/kg.
At the 3rd day, the mice were injected into their abdominal cavities with 25 mg/kg of Doxorubicin 0.5 hours after drench.

[9] = tested on: left ventricular myocardium matrix metalloproteinase (MMP-2); test: Left ventricular myocardium MMP-2 activity, Schisandrin B (Example 7); format: in vivo, mouse
Experimental: The experimental method was carried out as those described in Example 2 (1.4).

O=P1(N(CCCl)CCCl)NCCCO1 (stereo not shown) [Cytoxan]
Heart weight (ICR mice [1]): 162.6 ± 31.4 mg | Kidney weight (ICR mice [1]): 396.3 ± 54.7 mg | Liver weight (ICR mice [1]): 1.88 ± 0.36 g | Spleen weight (ICR mice [1]): 113.5 ± 24.7 mg | Thymus weight (ICR mice [1]): 49.8 ± 12.4 mg | Heart weight (ICR mice [2]): 162.6 ± 31.4 mg | Kidney weight (ICR mice [2]): 396.3 ± 54.7 mg | Liver weight (ICR mice [2]): 1.88 ± 0.36 g | Spleen weight (ICR mice [2]): 113.5 ± 24.7 mg | Thymus weight (ICR mice [2]): 49.8 ± 12.4 mg

COc1cccc2c1C(=O)c1c(O)c3c(c(O)c1C2=O)C[C@@](O)(C(=O)CO)C[C@@H]3O[C@H]1C[C@H](N)[C@H](O)[C@H](C)O1 [Doxorubicin]
apparent condition of mice (ICR mice [3]): in bad conditions, manifested as asthenia, listlessness, hypotrichosis | survival rate on the 7th day ([4]; Dox group: Doxorubicin 25 mg/kg ip alone): 3.7% | day on which death of mice occurred ([4]; Doxorubicin 25 mg/kg ip, alone or with extract 400 or 200 mg/kg ig days 1-3): 5 days | 4 serum enzyme indexes (CK, CK-MB, LDH, GOT) ([5]; Doxorubicin 25 mg/kg ip alone, vs control group and Sch B group (P<0.05), 48 h after injection): significantly higher | serum myocardium enzyme spectrum indexes (CK, CK-MB, LDH, GOT) [6]: significantly higher | apparent conditions of mice (ICR mice [7]): in bad conditions after 7-8 days, manifested as asthenia, listlessness and hypotrichosis | survival rate on the 7th day ([8]; Doxorubicin 25 mg/kg ip alone): 0 | day on which death of mice occurred ([8]; Doxorubicin 25 mg/kg ip, alone or with Sch B 100, 50 or 25 mg/kg ig days 1-3): 4 days

COc1cc2c(c(OC)c1OC)-c1c(cc3c(c1OC)OCO3)CC(C)C(C)C2 (stereo not shown) [Schisandrin B]
increase of mouse left ventricular myocardium MMP-2 activity induced by Doxorubicin ([9]; FIG. 14): inhibit the increase | left ventricular myocardium MMP-2 activity ([9]; Sch B group: 100 mg/kg ig days 1-3, no Doxorubicin): No left ventricular myocardium matrix metalloproteinase (MMP-2) activity | increase of mouse serum creatine kinase (CK) induced by Doxorubicin ([5]; FIG. 10): inhibit the increase | increase of mouse serum creatine kinase isozyme (CK-MB) induced by Doxorubicin ([5]; FIG. 11): inhibit the increase | increase of mouse serum glutamic-oxalocetic transaminase (GOT) induced by Doxorubicin ([5]; FIG. 12): inhibit the increase | increase of mouse serum lactic dehydrogenase (LDH) induced by Doxorubicin ([5]; FIG. 13): inhibit the increase | death of mouse induced by Doxorubicin ([8]; FIG. 15): inhibit the death
